Measurements taken from patent US20200368260A1, “USE OF BENZOPYRAN COMPOUND IN PREPARATION OF PRODUCT FOR REGULATING LIPID METABOLISM AND COMPOSITION OF THE SAME” (priority 2019, published 2020).

How the values were obtained:
Assay type in all cases: cell-based, human
high-fat HepG2 cells [1] = assay: Cellular aspartate aminotransferase (AST) content, AST kit; details: for level of AST in a high fat cell: FIGS. 4D, 5D; for level of AST, compared with control group and low dose group: medium and high doses
Experimental: (§1) 2. The culture, model establishment and experimental steps of the cells were operated according to the above steps. The anthocyanin compound mother liquor was diluted to 0, 0.1, 1, 10, 50, and 100 μM to treat the high-fat HepG2 cells, respectively.
(§2) 3. The culture solution was pipetted off, gently washed with PBS for 3 times, and added with trypsin to digest the cells for 1 min The cell suspension was pipetted into a 1.5 mL sterile EP tube, centrifuged at 1000 rpm for 10 minutes, the supernatant was discarded, the pellet was added with an appropriate amount of PBS, ultrasonically crushed under the condition of an ice-water bath, and the prepared homogenate was not centrifuged and was ready for determination.
The intracellular aspartate aminotransferase (AST) content was determined according to the operating instructions of an AST kit. 1.2.4 Effect of petunidin-3-O-β-D glucoside and malvidin-3-O-β-D glucose on autophagy of HepG2 cells

high-fat HepG2 cells [2] = assay: Cellular alanine aminotransferase (ALT) content, ALT kit; details: for level of ALT in a high fat cell: FIGS. 4C, 5C; for level of ALT, compared with control group and low dose group: medium and high doses
Experimental: as §1, §2
The intracellular alanine aminotransferase (ALT) content was determined according to the operating instructions of an ALT kit.

HepG2 cells = assay: MTT cell viability experiment, effect of treatment time (oleic acid NAFLD cell model); details: for cell viability among several other groups of treatment time: other treatment times (0, 12, 24, 48 h); for cell viability: treated for 6 h, FIG. 3; for cytotoxicity with the increase in time: treatment up to 48 h
Experimental: The HepG2 cells were seeded into a 96-well culture plate at 1×10^4 cells per well, incubated in a DMEM culture medium containing 10% fetal bovine serum for 12 h until complete confluence of the cells, and then the culture medium was replaced by respective concentrations of 0, 0.5, 1, 1.5, 2, 2.5, 3, 3.5, 4 mM of oleic acid formulated with a serum-free culture medium to treat the cells for 0, 24, 48, and 72 hours, with 4 replicate wells being set for each concentration. After the completion of the incubation, 10 μL of a freshly prepared MTT solution at a final concentration of 5 mg/mL was added into each well and the culture was continued for 4 h. Then, the liquid in the culture well was pipetted off to terminate the reaction. Each well was added with 100 μL of DMSO, and shaken fully on a plate shaker for […] such that the crystalline was fully dissolved, and an A490 absorbance was measured on a microplate reader. The cell proliferation viability was calculated according to the following formula.
Cell proliferation viability (%)=(the OD of drug group/the OD of blank group)×100%
1. The culture, model establishment and experimental steps of the cells were operated according to 1.2.1. When the cells were cultured to the confluence of 70%, the cells were treated with 0.5 mM for 24 h to establish a cell model of nonalcoholic fatty liver disease. The anthocyanin compound mother liquor was diluted to 10 μM to treat the cells for 0, 6, 12, 24, and 48 h. The MTT cell proliferation viability experiment determined the optimal dosing time.

COc1cc(-c2[o+]c3cc(O)cc(O)c3cc2O[C@@H]2O[C@H](CO)[C@@H](O)[C@H](O)[C@H]2O)cc(OC)c1O [malvidin-3-O-β-D glucoside]
level of AST in a high fat cell (high-fat HepG2 cells [1]): reduce
level of AST, compared with control group and low dose group (high-fat HepG2 cells [1]): very significant reduction
level of ALT in a high fat cell (high-fat HepG2 cells [2]): reduce
level of ALT, compared with control group and low dose group (high-fat HepG2 cells [2]): very significant reduction
cell viability among several other groups of treatment time (HepG2 cells): no significant difference
cell viability (HepG2 cells): significantly increased
cytotoxicity with the increase in time (HepG2 cells): not cytotoxic

COc1cc(-c2[o+]c3cc(O)cc(O)c3cc2O[C@@H]2O[C@H](CO)[C@@H](O)[C@H](O)[C@H]2O)cc(O)c1O [petunidin-3-O-β-D glucoside]
level of AST in a high fat cell (high-fat HepG2 cells [1]): reduce
level of AST, compared with control group and low dose group (high-fat HepG2 cells [1]): very significant reduction
level of ALT in a high fat cell (high-fat HepG2 cells [2]): reduce
level of ALT, compared with control group and low dose group (high-fat HepG2 cells [2]): very significant reduction
cell viability among several other groups of treatment time (HepG2 cells): no significant difference
cell viability (HepG2 cells): significantly increased
cytotoxicity with the increase in time (HepG2 cells): not cytotoxic
